Results taken from patent US20230002327A1, “SMALL-MOLECULE REGULATOR OF TLR8” (TSINGHUA UNIVERSITY, priority 2019, published 2023).

How the values were obtained:
TLR8 = biological target: T1, TLR8 (Homo sapiens, UniProt Q9NR97); assay: ssRNA40-induced signaling in HEK-Blue hTLR8 cell line; format: cell-based; conditions: at a concentration of 100 μM (FIG. 12)
T1 construct: host or cells: HEK-Blue hTLR8 (HEK293-derived SEAP reporter cells)
T1 sequence (Q9NR97 27-1041): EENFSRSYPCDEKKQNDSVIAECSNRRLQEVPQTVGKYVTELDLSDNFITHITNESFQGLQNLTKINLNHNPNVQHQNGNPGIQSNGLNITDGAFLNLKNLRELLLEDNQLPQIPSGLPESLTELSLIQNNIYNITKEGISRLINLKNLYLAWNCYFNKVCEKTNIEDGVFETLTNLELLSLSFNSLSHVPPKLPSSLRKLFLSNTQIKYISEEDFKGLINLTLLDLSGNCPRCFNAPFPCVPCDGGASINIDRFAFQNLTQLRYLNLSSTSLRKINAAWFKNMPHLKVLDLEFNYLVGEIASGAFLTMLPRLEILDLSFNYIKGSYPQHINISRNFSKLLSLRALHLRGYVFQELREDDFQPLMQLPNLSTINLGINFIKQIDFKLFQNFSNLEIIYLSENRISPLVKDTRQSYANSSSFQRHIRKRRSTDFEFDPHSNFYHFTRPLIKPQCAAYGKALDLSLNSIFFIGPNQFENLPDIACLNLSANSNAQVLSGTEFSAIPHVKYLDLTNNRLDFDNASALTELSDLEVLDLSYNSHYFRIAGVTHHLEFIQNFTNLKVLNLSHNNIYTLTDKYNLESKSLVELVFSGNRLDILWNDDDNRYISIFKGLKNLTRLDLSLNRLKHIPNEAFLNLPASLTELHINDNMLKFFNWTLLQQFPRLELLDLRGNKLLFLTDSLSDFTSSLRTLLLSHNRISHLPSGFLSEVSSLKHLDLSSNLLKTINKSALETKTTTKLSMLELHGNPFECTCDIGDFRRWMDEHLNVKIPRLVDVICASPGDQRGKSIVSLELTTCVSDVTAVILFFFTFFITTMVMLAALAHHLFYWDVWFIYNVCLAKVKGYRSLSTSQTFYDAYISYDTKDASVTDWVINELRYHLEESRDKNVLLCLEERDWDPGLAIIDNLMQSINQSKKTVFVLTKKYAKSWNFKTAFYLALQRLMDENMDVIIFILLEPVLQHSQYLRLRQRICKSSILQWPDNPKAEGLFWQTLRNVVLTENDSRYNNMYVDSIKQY
Protocol: HEK Blue hTLR8 cells or HEK Blue hTLR7 cells were cultured in DMEM medium supplemented with 10% fetal bovine serum, penicillin (100 U/mL) and streptomycin ([…]). Thereafter, cells were seeded in 96-well plate (45,000 cells per well), and were cultured for 24 hours in a humidified incubator (37° C., 5% CO2).
After 24 hours, the supernatant and suspending cells were aspirated and replaced with fresh serum-free DMEM. Cells were treated with 1 μg/mL of R848 (agonist of TLR7/8) or 5 μg/mL of ssRNA40/LyoVec or 5 μg/mL of ORN06/LyoVec (InvivoGen) and compounds with specified concentrations, and were placed in a humidified incubator (37° C., 5% CO2) for co-culture.
After 24 hours, 50 μL of the medium was aspirated from each well and then added to a new 96-well plate, followed by the addition of 50 μL of Quanti-Blue in each well and the incubation at 37° C. in darkness. Changes in color would occur in the […] within 60 minutes, and the absorbance was measured at 620 nm by using the multi-mode plate reader Vrioskan Flash. Inhibition rate (%)=[R848 (OD620)−Compound (OD620)]/[R848 (OD620)−Control (OD620)]×100%. Among these, the control group was only added with the same amount of cells. Finally, the software Prism 6.0 was utilized to plot a graph and calculate IC50 values. […]

[1] = tested on: hTLR1/2, TLR2/6, TLR3, TLR4, TLR5, TLR7, TLR9; assay: Specificity test in HEK-Blue TLR cell lines: other TLRs; format: cell-based, human; conditions: at a concentration of 100 μM (FIG. 11)
Protocol: The selectivity of compounds for receptors in TLR family was tested in HEK-Blue cells overexpressing various TLRX (x=1 to 9) respectively. The steps of this test method were the same as those mentioned above in “Activity Test of Compounds”, except that the ligands corresponding to different TLRs were used to activate the downstream signaling in the corresponding cells. Among these, ploy (I:C) (20 μg/mL), LPS (40 ng/mL), Pam3CSK4 (100 ng/mL), Pam2CSK4 (100 ng/mL), flagellin (200 ng/mL), R848 (1 μg/mL) and ODN2006 (0.5 μM) were used to selectively activate HEK-Blue hTLR3-, hTLR4-, hTLR1/2-, hTLR2/6-, hTLR5-, hTLR7- and hTLR9-overexpressing cells, respectively.

[2] = tested on: TLR1/2, TLR2/6, TLR3, TLR4 and TLR5 signaling pathways; assay: ELISA of TNF-α in TLR1/2, TLR2/6, TLR3, TLR4 or TLR5 signaling pathways in human PBMC; format: cell-based; conditions: human peripheral blood mononuclear cells (FIG. 4)

| SMILES | synergistic activating effect on ssRNA40-induced signaling (TLR8) | influence on other TLR signaling pathways [1] | inhibitory effect on TNF-α in TLR1/2, TLR2/6, TLR3, TLR4 and TLR5 signaling pathways [2] |
| --- | --- | --- | --- |
| CCOCc1nc(I)c(-c2ccccc2)n1CC(C)(C)O [Compound 53, 1-[2-(ethoxymethyl)-4-iodo-5-phenyl-1H-imidazole-1-yl]-2-methylpropan-2-ol] | synergistic activating effect | no influence | – |
| CSc1nnc(CCCO)n1-c1cc(C)c(C)c(C)c1 [Compound 24, 3-(5-(methylthio)-4-(3,4,5-trimethylphenyl)-4H-1,2,4-triazole-3-yl)propan-1-ol] | – | – | no inhibitory effect |
